Here are results for one compound from US20080153921A1, “Lycopene Formulations For the Treatment of Atherosclerotic Conditions” (CAMBRIDGE, priority 2005, published 2008).

Each structure is given as a SMILES string.

Assay [1] relates to lipid oxidising abzymes (atheroma extracted IgG). In words: Testing of anti-abzyme activity (lipid oxidation, MDA/thiobarbituric acid assay). Format: biochemical, human. As for the experimental part:
Antibodies were extracted from advanced atherosclerotic lesions of human aorta retrieved from two male patients […], during bypass surgery of an abdominal aortal stenosis at the Centre of Cardio-Vascular Surgery of the Medical University of Rostov-na-Donu, Russian Federation. After recovery these samples were immediately put in 30% w/v solution of NaCl and stored at 0-4° C. for 1 month prior to examination. […]
The antibodies were extracted and analysed separately from the lesions of the two pieces of the abdominal aorta obtained from the […] different patients. […]
Samples of the human serum were incubated with different concentrations of lycopene, lycopene/lactoprotein conjugate or alone (control samples) with the presence of atheroma extracted IgG for 16 hours at 37° C. at pH 5.6. The level of lipid peroxidation was assessed as a level of MDA concentration which was measured by spectrophotometric method [Draper, H. H. et al Free Radic. […] Briefly, the level of abzymes in a sample was determined as follows: Samples of sera were diluted 1:1 by 0.05M acetate buffer pH 4.0 to make the final pH of these samples between 5.6-5.8. […] The supernatants were collected and their absorption measured at λ 525 nm to determine the concentration of malondialdehydes (MDA), which are products of lipid peroxidation.

The test system of the next assay is lipid oxidising abzymes. Nature of the assay: ELISA based abzyme assay. In kind it is biochemical, human. To be noted: in vitro. As for the experimental part: ELISA assays were performed using Medac materials and reagents, which were used in accordance with the manufacturers instructions.
Briefly, serum samples from patients were treated as described above. 50 μl of sample diluent was pipetted into microtitre well A1 as blank, and 50 μl of the negative control, Positive Control and the diluted patients' samples were pipetted into other microtitre wells. The microplate wells were incubated for 60 min (±5 min) at 37 °C (±1° C.) in a humid chamber and then washed three times with 200 μl wash buffer per well. 50 μl of Conjugate was then added to each well and the microplate wells incubated again for 60 min (±5 min) at 37 °C (±1° C.) in a humid chamber and then washed. 50 μl of TMB-Substrate, was added to each well and the microplate wells incubated for 30 min (±2 min) at 37 °C (±1° C.) in a humid chamber. The reaction was stopped by adding 100 μl of Stop Solution, to each well.
Photometric reading was performed at 450 nm (ref. 620-650 nm) within 15 min after adding the Stop Solution.
To calculate the results, the OD value of the blank (well A1) was subtracted from all other OD values. Preferably, the OD value of the blank was <0.150, the mean OD value of the Negative Control was <0.100 and the OD value of the Positive Control was >0.800. Cut-off mean OD value of the Negative Control+0.380. Grey zone Cut-off±10%
Background: In an ELISA, binding on a coated surface is turned into a signal by an enzyme label.

Regarding `CC(C)=CCC/C(C)=C/C=C/C(C)=C/C=C/C(C)=C/C=C/C=C(C)/C=C/C=C(C)/C=C/C=C(\C)CCC=C(C)C` [Lycopene], the “Maximum inhibition in vitro” value in assay [1] (abzyme inhibition) was found to be 0%. In addition, the abzyme inhibition activity entry in assay [1] (lipid oxidation assay, in vitro) is given as “ineffective”; with lipid oxidising abzymes, “ineffective”.
